Square brackets hold non-standard residues; d marks the D form. Ends that are not written are not given here. Oic = O=C(O)[C@@H]1C[C@@H]2CCCC[C@@H]2N1; Tic = O=C(O)[C@@H]1Cc2ccccc2CN1
Molecular target: T1, recombinant human GzmA (hGzmA) (Homo sapiens, UniProt P12544)
T1 construct: active, mature form; purchased Enzo Life Sciences ALX-201-118-C010
T1 sequence (P12544 29-262): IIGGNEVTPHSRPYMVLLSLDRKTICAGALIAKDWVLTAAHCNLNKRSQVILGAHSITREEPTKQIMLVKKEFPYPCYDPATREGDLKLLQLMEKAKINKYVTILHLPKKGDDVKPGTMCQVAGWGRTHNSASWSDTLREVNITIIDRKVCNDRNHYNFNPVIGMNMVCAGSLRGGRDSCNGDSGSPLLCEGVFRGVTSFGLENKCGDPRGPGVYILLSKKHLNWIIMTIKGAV
Experiment: In-gel fluorescence labeling of recombinant active hGzmA
Format: biochemical
Details: hGzmA 100 nM, 37 °C; for Labeling of recombinant hGzmA (in-gel Cy5 fluorescence): varying probe concentrations, 2 h, SDS-PAGE
Method: Figure 3 GzmA ABPs covalently and competitively label active human and mouse GzmA. […] Recombinant hGzmA (100 nM) was incubated with varying concentrations of each ABP at 37 °C. B) Competitive labeling of hGzmA. Recombinant hGzmA (100 nM) was preincubated with covalent inhibitors 1 or 2 (5 μM) for 2 h, followed by labeling with ABPs 3 –5 (50 nM) for 2 h at 37 °C. Note: Pro‐form of hGzmA (the first lane) is not effectively stained by SYPRO‐Ruby. C) Structure of qABP 6. D) Quenched natures of 5 and 6. […] F) Labeling of mGzmA (1 μM) with 5 and 6 (1 μM, 24 h, 37 °C). Protein samples were analyzed by SDS‐PAGE and in‐gel fluorescence scanning for Cy5 signal and SYPRO Ruby staining. […]
C. In-gel fluorescence imaging
For recombinant enzyme labeling, working solutions of hGzmA (purchased from R&D Systems, Cat. No. 2905-SE-010 for pro-from and Enzo Life Sciences, Cat. No.: ALX-201-118-C010 for active, mature form) were prepared by diluting a 12.6 µM stock in the following assay buffer: 50 […]
mM Tris, 100 mM NaCl, 5 mM CaCl2, 0.01% (v/v) Tween-20, pH 7.5. […]
In-gel fluorescence and
SYPRO-Ruby staining images were acquired on a Typhoon FLA9500 instrument, while western blot images were acquired on an AMHERST ImageQuant 800 instrument.
Conditions for probe/inhibitor treatment for in-gel fluorescence analysis: Inhibitors and probes were incubated with active (or pro-) GzmA followed by treatment with 4X SDS reducing sample buffer. Samples were then heated to 100 °C for 5 min, brought to room temperature, and centrifuged. 20 µL of each sample was loaded onto a 15% polyacrylamide gel, which was then subjected to electrophoresis followed by the acquisition of in-gel fluorescence images. GzmA labeling was confirmed by western blotting, while protein loading was confirmed with SYPRO-Ruby staining. Incubation conditions for each figure/experiment are described below:
Conditions for Figure 3A: For labeling comparison between 3, 4, and 5, 100 nM of human GzmA was incubated with various concentrations of each probe for 2 h at 37 °C. For time-dependent labeling, 50 nM of 5 was incubated with 100 nM of human GzmA at 37 °C for the specified durations. Final reaction volume for both was 20 µL.
Conditions for Figure 3B: 100 nM of human GzmA was incubated with DMSO or 5 µM of 1 or 2 for 2 h at 37 °C in Eppendorf tubes. 0.5 µL of a 2 µM solution of 3, 4, or 5 in DMSO was then spiked into the Eppendorf tube, yielding a final probe concentration of 50 nM. The solution was incubated for another 2 h at 37 °C. Final reaction volume was 20 µL.
Conditions for Figure 3E: 100 nM of human GzmA was incubated with various concentrations of 5 or 6, respectively, for 2 h at 37 °C. Final reaction volume was 20 µL.
Conditions for Figure 3F: 1 µM of mouse GzmA was incubated with 1 µM of 5 or 6, respectively, for 24 h at 37 °C. Final reaction volume was 20 µL.
Conditions for Figure 4A: 1 mg/mL of lysates was incubated with various concentrations of 5 or 6, respectively, for 1 h at 37 °C.
Conditions for Figure 4C: Various concentrations of probes 3-6 were incubated with 1x10^6 NK-92 cells for 2 h at 37 °C in a humidified incubator. Cells were centrifuged, washed with PBS (x2) and lysed with ~40 µL of ice-cold RIPA buffer. Lysates were collected, protein concentration was measured with PIERCE BCA protein assay and samples were analyzed with in-gel fluorescence and GzmA western blotting. […]
All flow cytometry data were collected on BD LSRFortessa and FACSymphony A5 Cell Analyzers and analyzed with FlowJo software. Briefly, cells were processed according to the intended protocols for each experiment. Thereafter, cells were pelleted, fixed in the dark for 20 min at room temperature (Fixation buffer: BioLegend #420801), and pelleted again by centrifugation. Fixed cells were then resuspended in 1x intracellular staining perm wash buffer (BioLegend #421002), followed by centrifugation two times. Fixed/Permeabilized cells were then resuspended in […]

GFFR [compound 7]
Labeling of recombinant hGzmA (in-gel Cy5 fluorescence): lower labeling efficiency for both hGzmA and mGzmA compared with probes 5 and 6

IGNR [compound 5]
Concentration and time dependence of labeling of active hGzmA (time course with 50 nM probe): concentration‐ and time‐dependent labeling | Labeling of recombinant hGzmA (in-gel Cy5 fluorescence): efficiently label recombinant human GzmA (hGzmA) at submicromolar concentrations

[Tic]G[Oic]R [compound 6]
Labeling of recombinant hGzmA (in-gel Cy5 fluorescence): efficiently (and slightly more strongly than 5) labeled
